Results reported in patent publication US10681909B2, “Herbicidal triazoles” (FMC Corporation, priority 2014, dated 2020).

Assays:
[1] = tested on: foxtail, giant; assay: Test A preemergence; type: in vivo, Setaria faberii; conditions: Setaria faberi, pre-emergence, 240 h, 0 to 100 scale (0 no effect, 100 complete control), read-out: Plant response rating, Foxtail, Giant; for pest or weed control at 125 g/ha: 125 g ai/ha; for pest or weed control at 500 g/ha: 500 g ai/ha, approx. 10 d
Method in brief: (§1)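 Pre- and postemergence spray tests in a loam soil–sand mixture: seeded soil received a directed spray, while established seedlings 2–10 cm high at the one- to two-leaf stage were treated over the top. Compounds were carried in non-phytotoxic solvent with surfactant.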

[2] = tested on: pigweed; assay: Test A preemergence; type: in vivo, Amaranthus retroflexus; conditions: Amaranthus retroflexus, pre-emergence, 240 h, 0 to 100 scale (0 no effect, 100 complete control), read-out: Plant response rating, Pigweed; for pest or weed control at 125 g/ha: 125 g ai/ha; for pest or weed control at 500 g/ha: 500 g ai/ha, approx. 10 d
Method in brief: as §1

[3] = tested on: rice; assay: Test B flooded paddy test; type: in vivo, Oryza sativa; conditions: Oryza sativa, 360 h, 125 g ai/ha, applied to paddy water at 2-leaf stage, visual rating after 13 to 15 d, scale 0 (no effect) to 100 (complete control), read-out: Plant response rating, Rice, Flood
Method in brief: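 Pots were flooded to 3 cm above the soil at treatment, and compounds were applied directly into the paddy water. That depth was held throughout. After 13 to 15 d in a greenhouse, plants were rated visually against untreated controls.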

CCn1nc(-c2ccc(F)cc2)nc1C(O)c1ccnc(C(F)(F)F)c1 (stereo not drawn) [Compound 15, α-[1-Ethyl-3-(4-fluorophenyl)-1H-1,2,4-triazol-5-yl]-2-(trifluoromethyl)-4-pyridinemethanol]
pest or weed control at 125 g/ha [1]: 0% | pest or weed control at 500 g/ha [1]: 20% | pest or weed control at 125 g/ha [2]: 0% | pest or weed control at 500 g/ha [2]: 0% | plant injury at 125 g/ha [3]: 0%

CCCn1nc(-c2ccc(F)cc2)nc1Cc1ccnc(C(F)(F)F)c1 [Compound 17, 4-[[3-(4-fluorophenyl)-1-propyl-1H-1,2,4-triazol-5-yl]methyl]-2-(trifluoromethyl)pyridine]
pest or weed control at 125 g/ha [1]: 100% | pest or weed control at 500 g/ha [1]: 100% | pest or weed control at 125 g/ha [2]: 100% | pest or weed control at 500 g/ha [2]: 100% | plant injury at 125 g/ha [3]: 15%

CCn1nc(-c2ccc(F)cc2)nc1C(=O)c1ccnc(C(F)(F)F)c1 [Compound 19, [1-ethyl-3-(4-fluorophenyl)-1H-1,2,4-triazol-5-yl][2-(trifluoromethyl)-4-pyridinyl]methanone]
pest or weed control at 125 g/ha [1]: 0% | pest or weed control at 500 g/ha [1]: 50% | pest or weed control at 125 g/ha [2]: 0% | pest or weed control at 500 g/ha [2]: 0% | plant injury at 125 g/ha [3]: 0%

CS(=O)(=O)c1nc(-c2ccc(F)cc2)nn1Cc1ccnc(C(F)(F)F)c1 [Compound 29, 4-[[3-(4-fluorophenyl)-5-(methylsulfonyl)-1H-1,2,4-triazole-1-yl]methyl]-2-(trifluoromethyl)pyridine]
pest or weed control at 125 g/ha [1]: 0% | pest or weed control at 500 g/ha [1]: 0% | pest or weed control at 125 g/ha [2]: 0% | pest or weed control at 500 g/ha [2]: 0% | plant injury at 125 g/ha [3]: 0%
